The nature of assay [1]: microbe, parasite or virus in culture. To be noted: Mycobacterium tuberculosis, 72 h, read-out: pIC50 (converted).
The nature of assay [2]: microbe, parasite or virus in culture. To be noted: Mycobacterium tuberculosis, 96 h, read-out: pIC50 (converted).

Bounds are passed on as bounds.

On to `Cc1[nH]c(=O)[nH]c(=O)c1CN1CCCC(CCc2ccc(F)cc2F)C1` (centres undefined), for which the IC50 in assay [1] and in assay [2] was greater than 50.1 µM throughout.

For the compound `Cc1ccc2[nH]c(C(=O)N3CCN(C)CC3)cc2c1`, the IC50 in assay [1] is 384 µM; in assay [2] it was 316 µM.

With `COc1c(CNCCS(C)(=O)=O)c(C(C)C)nn1C`, the IC50 in assay [1] and in assay [2] was greater than 501 µM throughout.

For `O=C(NCCc1ccc(F)c(F)c1)N1CCCC(O)C1` (centres undefined), the IC50 in assay [1] and in assay [2] was greater than 501 µM each time.

Consider `COCCSCc1cccc(NC(=O)C(C)N)c1` (centres undefined), for which the IC50 in assay [1] was 119 µM; in assay [2], greater than 501 µM.

With `COc1c(Br)cccc1CCNC(=O)c1csnn1`, the IC50 in assay [1] and in assay [2] was greater than 50.1 µM each time.

As for `CCC(CO)NCc1ccc(-c2ccc(Br)cc2)o1` (centres undefined), the values for the IC50 in assay [1] and in assay [2] were 44.3 µM and 27.5 µM, respectively.

Regarding `NC1CCN(c2ccc(C(F)(F)F)cn2)CC1`, the figures for the IC50 in assay [1] and in assay [2] were 91.6 µM and 139 µM, respectively.

As to `CC(CNC(=O)c1ccncc1)c1ccccc1` (centres undefined), the IC50 in assay [1] is 189 µM; in assay [2] it was greater than 501 µM.

Regarding `O=C(NCc1cccc(Cl)c1)c1cnns1`, the IC50 in assay [1] was 297 µM; in assay [2] it was 159 µM.

For `Cc1ccc2c(c1)nc(CN)n2C`, the values for the IC50 in assay [1] and in assay [2] were 231 µM and 348 µM, respectively.

Regarding `O=S(=O)(c1ccco1)N1CCOCc2ccccc21`, the IC50 in assay [1] is 291 µM; in assay [2], greater than 501 µM.

Consider `O=C(c1cccc(-n2cccn2)n1)N1CCCC1`, for which the IC50 was 59.6 µM in assay [1] and 163 µM in assay [2].

On to `Nc1nccnc1C(=O)NCc1cc(Br)cs1`, for which the figures for the IC50 in assay [1] and in assay [2] were 93.5 µM and 132 µM, respectively.

`CCCNc1nc(CS(=O)(=O)c2ccccc2)cs1`: the IC50 in assay [1] and in assay [2] was greater than 50.1 µM throughout.

Take `CC(C)(N)CN1CCCN(c2ccc(F)cc2)CC1`: the IC50 in assay [1] was 203 µM; in assay [2], 265 µM.

With `Cc1onc(N)c1S(=O)(=O)NCc1ccccc1Cl`, the IC50 in assay [1] was 156 µM; in assay [2], greater than 501 µM.

For the compound `CCC[C@H]1CN(S(=O)(=O)Cc2ccc(F)cc2)C[C@@H]1N`, the IC50 in assay [1] and in assay [2] was greater than 501 µM in each case.

Take `COc1ccccc1OCCn1c(C)c(C)oc1=O`: the IC50 in assay [1] and in assay [2] was greater than 50.1 µM each time.

`N#Cc1cccc(C(=O)OCCCn2cccn2)c1`: the IC50 in assay [1] and in assay [2] was greater than 501 µM throughout.

Regarding `CCOCC(=O)NCC(Cc1cccc(F)c1)n1cccc1` (centres undefined), the IC50 in assay [1] was 10.4 µM; in assay [2], 11.7 µM.

With `CC(C)c1cccc(S(=O)(=O)NCCN)c1`, the values for the IC50 in assay [1] and in assay [2] were 219 µM and greater than 501 µM, respectively.

As to `CN(C)c1cc(CNC(=O)c2ccc(Br)o2)ccn1`, the IC50 in assay [1] and in assay [2] was greater than 501 µM throughout.

Regarding `Brc1ccc2c(c1)OCCNC2`, the IC50 in assay [1] and in assay [2] was greater than 501 µM throughout.

On to `CSc1cccc(N(C)C(=O)C(N)c2ccccc2)c1` (centres undefined), for which the values for the IC50 in assay [1] and in assay [2] were 233 µM and greater than 501 µM, respectively.

Turning to `COCc1ccc(CNc2cnn(C(C)(C)C)c(=O)c2Cl)cc1`, the IC50 is greater than 50.1 µM in assay [1] and 15.3 µM in assay [2].

In the case of `CC(C)c1cc(C(=O)N(C)C(C)c2ccon2)on1` (centres undefined), the IC50 is greater than 501 µM in assay [1] and 437 µM in assay [2].

In the case of `CCCC(=O)Nc1cc(C(=O)OC)cc(C(=O)OC)c1`, the IC50 was 249 µM in assay [1] and greater than 501 µM in assay [2].

For `Cn1nnnc1SCCNCc1ccc(Br)cc1`, the IC50 in assay [1] is 280 µM; in assay [2], 289 µM.

For `COC(=O)c1ccc(NCC(=O)NC(N)=O)cc1`, the IC50 is 85.4 µM in assay [1] and 58.3 µM in assay [2].

As for `CS(=O)(=O)N1CCc2[nH]cnc2C12CCN(C(=O)c1ccccc1)CC2`, the IC50 in assay [1] and in assay [2] was greater than 50.1 µM throughout.

With `Cc1ccccc1-n1nnnc1SCC(=O)NC1CC1`, the IC50 in assay [1] was 199 µM; in assay [2], greater than 501 µM.

`CC1Cc2ccccc2N1CCN` (centres undefined): the IC50 in assay [1] was 172 µM; in assay [2], 204 µM.

`Cc1nsc(C(=O)NCCc2ccc(F)cc2)n1`: the IC50 in assay [1] is 1.84 µM; in assay [2], 12.5 µM.

Regarding `O=C(NCC1CCCO1)c1cc(-c2cccs2)on1` (centres undefined), the IC50 in assay [1] was 38.3 µM; in assay [2] it was 54.8 µM.

Turning to `COCCCN1CCN(c2ccccc2OC)CC1` [DIMETHOLIZINE], the IC50 is 346 µM in assay [1] and greater than 501 µM in assay [2].

For the compound `Nc1cc(-c2ccc(I)cc2)nn1CCO`, the IC50 in assay [1] and in assay [2] was greater than 501 µM each time.

Consider `NC(=O)C1CCN(CCOc2ccc(Br)cc2)C1` (centres undefined), for which the IC50 in assay [1] and in assay [2] was greater than 501 µM in each case.

On to `COc1ccc(NC(=O)c2ccc(S(N)(=O)=O)o2)cc1`, for which the IC50 in assay [1] and in assay [2] was greater than 501 µM throughout.

For the compound `Cc1ccc(C2(O)CCNC2)cc1` (centres undefined), the IC50 in assay [1] was 181 µM; in assay [2] it was greater than 501 µM.

For the compound `CN1CCCN(Cc2cc(F)cc(F)c2)CC1=O`, the IC50 was 169 µM in assay [1] and 211 µM in assay [2].

For `CC(C)CC(C)N(C)Cc1nnc(-c2ccco2)o1` (centres undefined), the IC50 is 11.7 µM in assay [1] and 14.9 µM in assay [2].

Take `O=C(CNc1ccccc1F)N1CCCCC1`: the IC50 in assay [1] is 71.6 µM; in assay [2] it was 36.6 µM.

For the compound `CNC(=O)c1cc(-c2ccccc2C)n[nH]1`, the IC50 in assay [1] was greater than 501 µM; in assay [2], 180 µM.

For `O=C(c1cccc(F)c1)N1CCN(c2nccs2)CC1`, the IC50 was 228 µM in assay [1] and greater than 501 µM in assay [2].

Take `OCCOCCSc1n[nH]c(-c2cc(F)cc(F)c2)n1`: the IC50 in assay [1] and in assay [2] was greater than 501 µM throughout.

On to `CC(C)NS(=O)(=O)c1cc(CN)ccc1F`, for which the IC50 in assay [1] and in assay [2] was greater than 501 µM each time.

With `Cc1ccc(NC(=O)Cn2ccnc2)cc1`, the IC50 in assay [1] was 159 µM; in assay [2], 171 µM.

On to `Cc1nsc(C(=O)NCCCc2ccccc2)n1`, for which the values for the IC50 in assay [1] and in assay [2] were greater than 50.1 µM and 47.1 µM, respectively.

On to `O=C1Nc2ccccc2NC12CCN(c1cccc(C(F)(F)F)n1)CC2`, for which the IC50 in assay [1] and in assay [2] was greater than 50.1 µM throughout.

Turning to `NC(=O)CCS(=O)(=O)CCN1CCCCCC1`, the IC50 in assay [1] was 158 µM; in assay [2], greater than 501 µM.

Take `COc1ccc(-c2nc(CN(C)Cc3nncn3C)c(C)o2)c(C)c1C`: the IC50 in assay [1] was 42.9 µM; in assay [2], 10.1 µM.

Consider `COc1cccc([C@@H]2C[C@H]2N)c1`, for which the IC50 in assay [1] is 163 µM; in assay [2] it was greater than 501 µM.

Take `CC(C)N(CCNc1nc(C2CCCC2)nc2c1cnn2C)C(C)C`: the IC50 in assay [1] is 20.6 µM; in assay [2], 18.7 µM.

As for `CNC(=O)CSc1nnnn1-c1ccc(C(C)C)cc1`, the IC50 was 120 µM in assay [1] and 134 µM in assay [2].

On to `CNC(=O)c1cccc(NCc2ccc(C#N)s2)n1`, for which the IC50 was 180 µM in assay [1] and 205 µM in assay [2].

As for `CC(=O)NCCCNCc1ccc(Br)c2cccnc12`, the IC50 was 278 µM in assay [1] and greater than 501 µM in assay [2].

On to `OCCN1CCN(c2nc(-c3ccccc3)no2)CC1`, for which the IC50 is 83.7 µM in assay [1] and greater than 501 µM in assay [2].

Consider `CC(C)CCN1Cc2c(C(=O)O)ncn2-c2ccccc2S1(=O)=O`, for which the IC50 in assay [1] and in assay [2] was greater than 50.1 µM each time.

With `CCc1noc(Cn2cnc3ccccc3c2=O)n1`, the IC50 in assay [1] and in assay [2] was greater than 501 µM each time.

Turning to `N[C@@H]1CC[C@@H](NC(=O)c2cc3sccc3[nH]2)C1`, the figures for the IC50 in assay [1] and in assay [2] were 167 µM and greater than 501 µM, respectively.

On to `Cc1cncc(NCc2ccccc2N2CCOCC2)c1`, for which the figures for the IC50 in assay [1] and in assay [2] were 6.63 µM and 6.18 µM, respectively.

Consider `Nc1ncccc1C(=O)NCCC1=CCCCC1`, for which the values for the IC50 in assay [1] and in assay [2] were 230 µM and greater than 501 µM, respectively.

For the compound `O=C(c1ccco1)N1CCCN(Cc2cscn2)CC1`, the IC50 in assay [1] and in assay [2] was greater than 501 µM each time.

As to `COCCOCCn1nc(C)c(C#N)c1N`, the IC50 in assay [1] and in assay [2] was greater than 501 µM in each case.

Take `CC(C)(C)OC(=O)N1CC2(CCC(CN)O2)C1` (centres undefined): the IC50 was 231 µM in assay [1] and 263 µM in assay [2].

For `Cc1cnn(CCNc2ccc(F)cn2)c1`, the results for the IC50 in assay [1] and in assay [2] were 365 µM and greater than 501 µM, respectively.

Regarding `N#Cc1cc(F)c(NCCc2ccc(F)cc2)c(F)c1`, the IC50 in assay [1] is greater than 50.1 µM; in assay [2], 22.5 µM.

With `CCS(=O)(=O)N1CCC(c2nnc(CN3CCCCCC3)n2C)CC1`, the IC50 in assay [1] and in assay [2] was greater than 50.1 µM in each case.

With `O=C(COc1ncccn1)Nc1ccc(F)cc1F`, the IC50 in assay [1] and in assay [2] was greater than 501 µM throughout.

For `CN(C(=O)c1ccccc1)S(=O)(=O)c1ccccc1`, the IC50 in assay [1] is 280 µM; in assay [2] it was 303 µM.

`CC1CCCN(S(=O)(=O)N(C)Cc2ccco2)C1` (centres undefined): the IC50 in assay [1] and in assay [2] was greater than 501 µM in each case.

Regarding `COCC(=O)NC1CCc2ccccc21` (centres undefined), the results for the IC50 in assay [1] and in assay [2] were 114 µM and 124 µM, respectively.

As for `Cc1ccc(OC2CN(C(=O)[C@H](N)C(C)C)C2)cc1`, the results for the IC50 in assay [1] and in assay [2] were 393 µM and 236 µM, respectively.

Take `Nc1nnc(SCC(=O)NCCc2cccc(Cl)c2)s1`: the IC50 in assay [1] was 287 µM; in assay [2], greater than 501 µM.

Take `N#CCOC(=O)c1ccc2c(c1)OCCCO2`: the values for the IC50 in assay [1] and in assay [2] were greater than 501 µM and 182 µM, respectively.

Consider `O=C(COCC1CC1)Nc1cc(S(=O)(=O)NC2CC2)ccc1F`, for which the IC50 was 45.8 µM in assay [1] and greater than 50.1 µM in assay [2].

On to `NCCCC(=O)N(Cc1ccccc1F)C1CCC1`, for which the IC50 in assay [1] was 231 µM; in assay [2], greater than 501 µM.

Consider `N#Cc1ccc(NC2CCN(c3ncccn3)CC2)cc1C(F)(F)F`, for which the IC50 in assay [1] is 12.2 µM; in assay [2], 6.68 µM.

Turning to `O=C(c1cc(C2CC2)on1)N1CCC2(CCOCC2)C1`, the IC50 in assay [1] was 20.5 µM; in assay [2], 25.4 µM.

Take `Cc1cc(C)cc(OCC(=O)N2CCOCC2)c1`: the results for the IC50 in assay [1] and in assay [2] were 155 µM and greater than 501 µM, respectively.

For the compound `CN(C)C(=O)CSCC(=O)NCc1ccc(Cl)cc1`, the values for the IC50 in assay [1] and in assay [2] were 86.8 µM and greater than 501 µM, respectively.

For the origin of these results see ChEMBL document CHEMBL3988442, “University of Dundee, Small-Polar-MMV Screening Library” (2021).
